57 compounds from PubChem BioAssay AID179 (DTP/NCI, 2004) can be followed below.

The source made the active and inactive calls.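 Rule for the calls: active = compounds giving half or more protection of infected cells from virus-caused growth loss, again on retest; inactive = the rest.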

This test concerns CEM cells HIV-1 protection, formazan growth assay. The test is described as follows: NCI AIDS Antiviral Assay. The settings on record: for IC50: measured here: growth of uninfected CEM cells. The gist of the method: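 Human CEM cells, uninfected and HIV-1-infected, exposed to five drug concentrations; growth measured by soluble formazan assay and scored as percent protection from infection, with protecting compounds retested.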

As to `O=C(O)c1ccccc1C(=O)c1ccc(F)cc1`, the outcome was inactive.

As usually defined, the EC50 is the concentration at which the effect is half-maximal. In general, IC50 refers to the point on the concentration scale where inhibition reaches its midpoint. For `CCOC(=O)CC(C)C1(C=O)CCCCC1=O` (stereo not given), the EC50 is over 759 µM and the IC50 is over 759 µM.

Turning to `COc1ccc(C2=Nn3c(nc4sc(-c5ccccc5)cc4c3=O)SC2)cc1`, the EC50 was over 200 µM and the IC50 is over 200 µM.

Take `CC(=O)OCC1OC(n2c(=O)[nH]c(=O)c3sccc32)C(Br)C1OC(C)=O` (stereo not given): the EC50 is over 200 µM and the IC50 was over 200 µM.

For `C[C@@H]1CC(=O)C2CCCC1C2=O` (stereo not given in full), the result was inactive.

As to `COC12C(COC(N)=O)C3=C(C(=O)C(C)=C(N)C3=O)N1CC1C2N1C` (stereo not given), the EC50 is over 724 µM and the IC50 was 0.417 µM.

In the case of `Cc1ccc(S(=O)(=O)C(CC(=O)N2CCCC2)C(=O)c2ccccc2)cc1` (stereo not given), the EC50 was over 93.3 µM and the IC50 came to 15.5 µM.

For `COC(=O)C1(F)C(=O)NC(=O)NC1OC` (stereo not given), the EC50 was over 1120 µM and the IC50 came to 17.4 µM.

Take `COc1ccc(C2CN(C(=O)c3ccccc3)N=C(c3ccccc3)O2)cc1` (stereo not given): the EC50 is over 17 µM and the IC50 is over 17 µM.

Consider `CN(C)CCCN1N=Nc2cccc3cccc1c23`, for which the outcome was inactive.

On to `O=C(c1ccc(Cl)cc1)c1ccc(OCCCOc2ccc(C(=O)c3ccc(Cl)cc3)cc2Cl)c(Cl)c1`, for which the EC50 is over 4.79 µM and the IC50 was over 4.79 µM.

For the compound `COC(=O)c1ccc(N=NN(C)COc2ccc(C#N)cc2)cc1`, the EC50 was over 200 µM and the IC50 is 81.3 µM.

On to `COC(=O)C1=C(CS(=O)c2ccc([N+](=O)[O-])cc2[N+](=O)[O-])ON(C)C1c1ccccc1` (stereo not given), for which the result was inactive.

`c1onc2c1CCCC2` (tested in a mixture with another compound): the EC50 was over 1620 µM and the concentration for half-maximal inhibition (IC50) was over 1620 µM.

With `COc1ccc(SSc2ccc(OC)n[n+]2[O-])[n+]([O-])n1`, the EC50 is over 200 µM and the half-maximal inhibitory concentration (IC50) came out at 1 µM.

For the compound `COc1cc([C@@H]2c3cc4c(c(O)c3C[C@H]3COC(=O)[C@@H]32)OCO4)cc(OC)c1OC`, the EC50 was over 0.02 µM and the IC50 was found to be 0.00309 µM.

As to `COc1ccc(OCc2nc3ccccc3[nH]2)cc1`, the EC50 was over 200 µM and the 50% inhibitory concentration (IC50) is over 200 µM.

For the compound `Fc1cccc(C2SCc3nc4ccccc4n32)c1` (stereo not given), the half-maximal effective concentration (EC50) was over 209 µM and the IC50 worked out at 20.9 µM.

With `Cc1nc(C(N)=S)sc1C(=O)C/C(=N/N)C(=O)Nc1ccc(Cl)cc1`, the EC50 is over 240 µM and the IC50 was over 240 µM.

Consider `CN1C(=O)C(C)(C)C2(SC(C)(C)C2(C)C)N(C)C1=S` (stereo not given), for which the EC50 was over 24 µM and the 50% inhibitory concentration (IC50) is over 24 µM.

`CC1=CC(C)=Nc2ccc(C)cc2N1`: the EC50 was over 200 µM and the IC50 came to 195 µM.

Turning to `CC(=O)/C(=C\C1=CCCO1)C(=O)Nc1ccccc1C`, the EC50 was over 26.3 µM and the IC50 is over 26.3 µM.

For the compound `O=C1NCN(c2ccccc2)C12CCN(Cc1ccccc1)CC2`, the EC50 is over 200 µM and the IC50 was over 200 µM.

On to `Cc1ccc2c(=O)c3ccccc3sc2c1`, for which the EC50 was over 200 µM and the IC50 is over 200 µM.

For the compound `O=C(O)CCC(=O)N1c2ccccc2CC1c1c[nH]c2ccccc12` (stereo not given), the EC50 was over 741 µM and the IC50 is 158 µM.

`CC(=Nc1ccc([N+](=O)[O-])cc1)c1ccc(O)cc1`: the EC50 is over 200 µM and the IC50 is 10.7 µM.

For `COc1cc([N+](=O)[O-])c(OC)c2c(=O)[nH]c(=O)[nH]c12`, the EC50 was over 47.9 µM and the IC50 was over 47.9 µM.

Regarding `CCN(CCCCOC(=O)c1ccc(OC)c(OC)c1)C(C)Cc1ccc(OC)cc1` (stereo not given), the EC50 is over 200 µM and the half-inhibitory concentration (IC50) came to 102 µM.

On to `N#Cc1c(=O)[nH]c(=O)n2c1[nH]c1ccccc12`, for which the EC50 was over 200 µM and the IC50 is over 200 µM.

For the compound `C=C([Si](C)(C)C)[Si](C)(C)C`, the EC50 is over 209 µM and the IC50 was over 209 µM.

Regarding `CC(C)(C)N/N=C(\C(=O)Nc1cccc(Cl)c1)C1C(=O)Nc2ccccc2S1=O` (stereo not given), the outcome was inactive.

On to `O=C(O)CN(CCN(CC(=O)O)CC(=O)O)CC(=O)O.[Ni+2]`, for which the EC50 was over 200 µM and the IC50 was over 200 µM.

As for `CCOC(=O)c1[nH]c2c(OCC)nc(OCC)nc2c1Br`, the EC50 was over 200 µM and the IC50 was over 200 µM.

For the compound `CCCCCCCCCCOC(=O)NCCC`, the result was inactive.

Take `Cc1n[n+](CC(=O)c2ccccc2)c2sc(N)nn12`: the EC50 is over 200 µM and the half-inhibitory concentration (IC50) worked out at 132 µM.

`COc1ccc(SCc2cc(OCc3ccccc3)c(OCc3ccccc3)c(OCc3ccccc3)c2)cc1`: the EC50 is over 200 µM and the IC50 is over 200 µM.

Consider `O=c1c2c3c(sc2nc2n1N=C(c1ccc([N+](=O)[O-])cc1)CS2)CCCC3`, for which the EC50 was over 200 µM and the 50% inhibitory concentration (IC50) is over 200 µM.

In the case of `O=C1CNC(=O)c2ncn(C3OC(CO)C(O)C3O)c2N1` (stereo not given), the EC50 is over 240 µM and the half-maximal inhibitory concentration (IC50) was over 240 µM.

As to `COc1ccc(C(=O)O)c2c(=O)c3ccccc3[nH]c12`, the result was inactive.

Turning to `Cn1c2ccccc2c2cc(-c3ccccc3)c3c(c21)C(=O)c1ccccc1C3=O`, the EC50 is over 13.5 µM and the IC50 was over 13.5 µM.

Regarding `COC(=O)c1cc(S(=O)(=O)NC2=NCC(C)NN2)c(S)cc1Cl` (stereo not given), the EC50 was over 200 µM and the IC50 is 17 µM.

On to `CCOC(=O)/C(=C\c1ccccc1)[Se]c1ccccc1`, for which the EC50 was over 56.2 µM and the IC50 is over 56.2 µM.

With `C=CC1CCC[N+]1(CC(=O)OCC)Cc1ccccc1` (stereo not given), the EC50 is over 200 µM and the IC50 is over 200 µM.

Take `ClC1CCC2OOC1O2` (stereo not given): the outcome was inactive.

For the compound `COC(=O)c1ccccc1NCc1cc(O)ccc1O`, the EC50 is over 200 µM and the IC50 came out at 30.9 µM.

For `O=C1NC2(CCCCC2)NC12CCCCC2`, the EC50 was over 135 µM and the concentration for half-maximal inhibition (IC50) was over 135 µM.

Turning to `Clc1cccc(-c2nc3cccc4c3n2Cc2ncccc2-4)c1`, the EC50 was over 200 µM and the IC50 is over 200 µM.

On to `NC1=NCC(c2ccc(Cl)cc2)O1` (stereo not given), for which the EC50 was over 200 µM and the IC50 is 50.1 µM.

`Cc1ccc(NC(=O)c2ccccc2)c(=O)o1`: the EC50 was over 200 µM and the IC50 was over 200 µM.

Take `O=C1NS(=O)(=O)c2ccccc21`: the EC50 was over 1200 µM and the 50% inhibitory concentration (IC50) is over 1200 µM.

In the case of `CCOC(OCC)C(CC)[Se]c1ccccc1` (stereo not given), the EC50 was over 87.1 µM and the IC50 is over 87.1 µM.

`CN(C)c1cccc2c(S(=O)(=O)NCCCNCCN)cccc12`: the EC50 was over 200 µM and the IC50 amounted to 66.1 µM.

As to `Oc1cccc(/C=C/c2ccncc2)c1`, the EC50 is over 36.3 µM and the IC50 is over 36.3 µM.

On to `COC(=O)Cc1cc(O)c2c(c1O)C(=O)c1ccccc1C2=O`, for which the result was inactive.

Turning to `N#CSc1nc[nH]c1C(N)=O`, the EC50 was over 200 µM and the IC50 amounted to 10 µM.

Consider `COc1cccc2c1OC1(C=C2)Oc2ccccc2C(=O)N1C` (stereo not given), for which the EC50 is over 200 µM and the IC50 was 30.9 µM.

On to `CCC(=O)C(CCN1CCC(n2c(=O)[nH]c3ccccc32)CC1)(c1ccccc1)c1ccccc1`, for which the EC50 was over 200 µM and the IC50 was 19.1 µM.
